Test [1] concerns human foetal lung fibroblasts. The following applies: cited from earlier work.
Another test deals with UUO mice. To be noted: UUO mice treated with antagonist, compared with LPA1 (-/-) mice; cited from earlier work.
Test [2] deals with mouse epithelial renal cell line, MCT. The following applies: co-treatment with LPA, MCT cells; cited from earlier work.
The subject of test [3] is pancreatic cancer cell lines. To be noted: cited from earlier work.
For another test, the system named is nerve-injured mice. The following applies: pretreatment; cited from earlier work.
A further test relates to IPF patients. To be noted: 26-week clinical trial in IPF patients; cited from earlier work.
The target of another test is T1, human LPA1 (Homo sapiens, UniProt Q92633).
T1 construct: expressed in transfected cells; host or cells: Chinese hamster ovary (CHO) cells
T1 sequence (Q92633 whole entry): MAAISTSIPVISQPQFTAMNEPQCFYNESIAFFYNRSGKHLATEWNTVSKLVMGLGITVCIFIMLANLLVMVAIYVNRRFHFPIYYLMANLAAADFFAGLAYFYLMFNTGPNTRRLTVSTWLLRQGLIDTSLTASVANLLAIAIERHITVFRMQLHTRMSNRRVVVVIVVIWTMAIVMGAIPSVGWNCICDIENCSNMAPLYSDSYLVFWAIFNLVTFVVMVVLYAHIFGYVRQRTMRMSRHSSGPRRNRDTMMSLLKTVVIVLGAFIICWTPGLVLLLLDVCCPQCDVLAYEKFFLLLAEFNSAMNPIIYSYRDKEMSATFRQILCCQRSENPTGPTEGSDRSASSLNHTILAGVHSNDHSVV
Description: LPA1 functional antagonist assay (calcium flux). It counts as cell-based. To be noted: CHO cells overexpressing human LPA1; inhibition of calcium flux induced by 10 nM LPA; read-out: hLPA1 IC50. Here is the method: The effectiveness of compounds of the present invention as LPA1 inhibitors can be determined in an LPA1 functional antagonist assay as follows: • Chinese hamster ovary cells overexpressing human LPA1 were plated overnight (15,000 cells/well) in poly-D-lysine coated 384-well microplates (Greiner bio-one, Cat #781946) in DMEM/F12 medium (Gibco, Cat #11039). Following overnight culture, cells were loaded with calcium indicator dye (AAT Bioquest Inc, Cat #34601) for 30 minutes at 37° C. The cells were then equilibrated to room temperature for 30 minutes before the assay. Test compounds solubilized in DMSO were transferred to 384 well non-binding surface plates (Corning, Cat #3575) using the Labcyte Echo acoustic dispense and diluted with assay buffer [[…] with calcium/magnesium (Gibco Cat #14025-092), 20 mM HEPES (Gibco Cat #15630-080) and 0.1% fatty acid free BSA (Sigma Cat #A9205)] to a final concentration of 0.5% DMSO. Diluted compounds were added to the cells by FDSS6000 (Hamamatsu) at final concentrations ranging from 0.08 nM to 5 μM. and were then incubated for 20 min at room temperature at which time LPA (Avanti Polar Lipids Cat #857130C) was added at final concentrations of 10 nM to stimulate the cells. The compound IC50 value was defined as the concentration of test compound which inhibited 50% of the calcium flux induced by LPA alone. IC50 values were determined by fitting data to a 4-parameter logistic equation (GraphPad Prism, San Diego CA). b. In Vivo Assays LPA Challenge with Plasma Histamine Evaluation.

Structures can show the parent of a compound that is named as a salt.

As usually defined, the IC50 is the point on the concentration scale where inhibition reaches its midpoint.

In the case of `Cc1noc(-c2ccc(CSCCC(=O)O)cc2)c1NC(=O)OC(C)c1ccccc1Cl` (stereo not shown) [Ki16425], in test [1], the “chemotaxis of human foetal lung fibroblasts induced by BAL from IPF patients” value was “blocked”. The “development of renal fibrosis” value in the test with UUO mice is recorded as “closely resembled the profile of LPA1 (−/−) mice”. Moreover, the “LPA-induced expression of CTGF” value in test [2] is “almost completely suppressed”. Besides, the “LPA-induced and ascites-induced invasion activity” value in test [3] (highly peritoneal metastatic pancreatic cancer cell line) was “blocked”. In addition, in test [3] (pancreatic cancer cell lines), the “in vitro migration in response to LPA and ascites from pancreatic cancer patients” value is listed as “effectively blocked”. On to `C[C@@H](N)[C@H]1CC[C@H](C(=O)Nc2ccncc2)CC1` [Example Y-27632], for which the allodynia and hyperalgesia entry with nerve-injured mice is recorded as “completely abolished”. For `Cc1noc(-c2ccc(-c3ccc(C4(C(=O)O)CC4)cc3)cc2)c1NC(=O)O[C@H](C)c1ccccc1` [BMS-986020], the “rate of FVC (forced vital capacity) decline” value with IPF patients is listed as “significantly reduce”. Regarding `Cc1nc(-c2nnn(C)c2Cn2nnc(CC3CCCC3)n2)ccc1O[C@@H]1COC[C@@H](C(=O)O)C1` (racemic) [Example 24, (±)-trans-5-((6-(5-((5-(cyclopentylmethyl)-2H-tetrazol-2-yl)methyl)-1-methyl-1H-1,2,3-triazol-4-yl)-2-methylpyridin-3-yl)oxy)tetrahydro-2H-pyran-3-Carboxylic Acid, TFA Salt], the IC50 on human LPA1 was found to be 420 nM. In the case of `Cc1nc(-c2nnn(C)c2COC(=O)N(C)CC2CCC2)ccc1O[C@H]1COC[C@@H](C(=O)O)C1` [Example 32], the half-maximal inhibitory concentration (IC50) on human LPA1 stood at 348 nM. For `Cc1nc(-c2nnn(C)c2COC(=O)N(C)Cc2ccccc2)ccc1O[C@H]1COC[C@@H](C(=O)O)C1` [Example 29], the IC50 on human LPA1 is 594 nM. The same measure, in the same setting: then `CCCCN(C)C(=O)OCc1c(-c2ccc(O[C@@H]3COC[C@@H](C(=O)O)C3)c(C)n2)nnn1C` [Example 18], with 174 nM; and `Cc1nc(-c2nnn(C)c2COC(=O)N(C)CC2CCCC2)ccc1O[C@@H]1COC[C@@H](C(=O)O)C1` [Example 22A], with 160 nM; and `CN(CC1CCC1)C(=O)OCc1c(-c2ccc(O[C@@H]3CC[C@H]4C(C(=O)O)[C@@H]34)cn2)nnn1C` (stereo partly shown) [Example 70], with 81 nM. The same measure, in the same setting: then `Cc1nc(-c2nnn(C)c2COC(=O)N(C)CC2CCC2)ccc1O[C@H]1CCC[C@]2(C(=O)O)C[C@H]12` (single isomer, unassigned) [Example 12], with 278 nM; and `CCCCN(C)C(=O)OCc1c(-c2ccc(O[C@H]3CCO[C@H](C(=O)O)C3)c(C)n2)nnn1C` [Example 37], with 225 nM; and `CCCCN(C)C(=O)OCc1c(-c2ccc(O[C@H]3C[C@H](C(=O)O)[C@@H]4C[C@@H]43)c(C)n2)nnn1C` [Example 14], with 143 nM.

The record behind these values is patent publication US12435057B2, “Triazole carboxylic acids as LPA antagonists” (BRISTOL-MYERS SQUIBB COMPANY, priority 2019, dated 2025).
